The test relates to P388 leukemia ip, CD2F1 mice, survival T/C. Briefly: NCI In Vivo Anticancer Drug Screen. Data for tumor model P388 Leukemia (intraperitoneal) in CD2F1 (CDF1) mice. Particulars: endpoint: median survival time, higher = longer survival. An outline of the steps:
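Mice carrying the transplanted tumor received test compound or vehicle. Survival was recorded in each group, and the value is the treated-group measurement divided by that of the vehicle-treated control group.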

Where [1] appears, read: dose: 12.5 mg/kg/injection, schedule: Q01DX005 (ip), vehicle: Klucel (hydroxypropylcellulose) (HPC).
Setting [2] is: dose: 25.0 mg/kg/injection, schedule: Q01DX005 (ip), vehicle: Klucel (hydroxypropylcellulose) (HPC).
Where [3] appears, read: dose: 50.0 mg/kg/injection, schedule: Q01DX005 (ip), vehicle: Klucel (hydroxypropylcellulose) (HPC).
[4] abbreviates: dose: 50.0 mg/kg/injection, schedule: Q01DX005 (ip), vehicle: saline with Tween-80.
Where [5] appears, read: dose: 100.0 mg/kg/injection, schedule: Q01DX005 (ip), vehicle: saline with Tween-80.
Setting [6] is: dose: 100.0 mg/kg/injection, schedule: Q01DX005 (ip), vehicle: Klucel (hydroxypropylcellulose) (HPC).

“And” between values parts separate entries of the source, which are not always exact repeats. Identical values can stand only once. Inconclusive results and toxic doses are left out.

For `O=S1(=O)CC23C=CC=CC2(CCCC3)C1Cl` (stereo unspecified), the T/C is, setting by setting: under setting [1], 93 % of control; under setting [2], 89 % of control; under setting [3], 91 % of control.
With `CCC(O)C(C[N+](=O)[O-])C(=O)OC` (stereo unspecified), the T/C (dose: 50.0 mg/kg/injection, schedule: Q01DX005 (ip), vehicle: saline) was 109 % of control; the T/C (dose: 100.0 mg/kg/injection, schedule: Q01DX005 (ip), vehicle: saline) was 107 % of control; the T/C (dose: 200.0 mg/kg/injection, schedule: Q01DX005 (ip), vehicle: saline) was 102 % of control.
Take `CCOC(=O)c1c(=O)[nH]c(=O)n2c1[nH]c1ccccc12`: the T/C reads like this: (dose: 60.0 mg/kg/injection, schedule: Q01DX005 (ip), vehicle: saline with Tween-80) 93 % of control; (dose: 120.0 mg/kg/injection, schedule: Q01DX005 (ip), vehicle: saline with Tween-80) 91 % of control; (dose: 240.0 mg/kg/injection, schedule: Q01DX005 (ip), vehicle: saline with Tween-80) 90 % of control.
As for `CC1(C)OC2(C)CCC1C1C2N1C(=O)C1CC1` (stereo unspecified), the T/C was 97 % of control under setting [4]; 104 % of control under setting [5]; 105 % of control (dose: 200.0 mg/kg/injection, schedule: Q01DX005 (ip), vehicle: saline with Tween-80).
For the compound `CN(C)c1ccc(Cc2ccc(N(C)C)c(C(O)(c3ccccc3)c3ccccc3)c2)cc1C(O)(c1ccccc1)c1ccccc1`, the T/C by setting is: (dose: 1.56 mg/kg/injection, schedule: Q01DX005 (ip), vehicle: saline) 100 % of control; (dose: 3.13 mg/kg/injection, schedule: Q01DX005 (ip), vehicle: saline) 97 % of control; (dose: 6.25 mg/kg/injection, schedule: Q01DX005 (ip), vehicle: saline) 90 % of control.
For the compound `CCCCCC1=CC2C(=O)NC(=O)NC12` (stereo unspecified), the T/C was 98 % of control under setting [1], 97 % of control under setting [2], 105 % of control under setting [3] and 96 % of control under setting [6].
In the case of `FC(F)(F)c1cc([C@H]2[C@@H]3CCCCN32)c2cccc(C(F)(F)F)c2n1` (stereo partly specified), the T/C reads like this: (dose: 12.5 mg/kg/injection, schedule: Q04DX003 (ip), vehicle: distilled water + Tween-80) 93 % of control; (dose: 25.0 mg/kg/injection, schedule: Q04DX003 (ip), vehicle: distilled water + Tween-80) 97 % of control; (dose: 50.0 mg/kg/injection, schedule: Q04DX003 (ip), vehicle: distilled water + Tween-80) 96 % of control; (dose: 100.0 mg/kg/injection, schedule: Q04DX003 (ip), vehicle: distilled water + Tween-80) 95 % of control; (dose: 200.0 mg/kg/injection, schedule: Q04DX003 (ip), vehicle: distilled water + Tween-80) 99 % of control; (dose: 400.0 mg/kg/injection, schedule: Q04DX003 (ip), vehicle: distilled water + Tween-80) 103 % of control.
On to `Nc1ccccc1C(=O)Nc1ccc(Cl)cc1C(=O)O`, for which the T/C runs as follows: (dose: 50.0 mg/kg/injection, schedule: Q01DX009 (ip), vehicle: saline) 101 % of control; (dose: 100.0 mg/kg/injection, schedule: Q01DX009 (ip), vehicle: saline) 106 % of control.
Turning to `COc1ccc2c(c1)[C@@H](NC(C)=O)CCc1cc(OC)c(OC)c(OC)c1-2`, the T/C by setting is: (dose: 0.25 mg/kg/injection, schedule: Q01DX005 (ip), vehicle: saline) 100 % of control and 108 % of control; (dose: 0.5 mg/kg/injection, schedule: Q01DX005 (ip), vehicle: saline) 102 % of control and 105 % of control; (dose: 1.0 mg/kg/injection, schedule: Q01DX005 (ip), vehicle: saline) 104 % of control and 108 % of control; (dose: 2.0 mg/kg/injection, schedule: Q01DX005 (ip), vehicle: saline) 110 % of control and 96 % of control; (dose: 4.0 mg/kg/injection, schedule: Q01DX005 (ip), vehicle: saline) 98 % of control and 108 % of control.
Consider `CC(=O)OCC12C=CC(O1)C1C(=O)OC(=O)C12` (stereo unspecified), for which the T/C under setting [4] was 94 % of control and the T/C under setting [5] is 88 % of control.
Regarding `COc1cc2c(cc1OC)C13CCC(O)CC1=CC2(C)O3` (stereo unspecified), the T/C is 96 % of control (dose: 50.0 mg/kg/injection, schedule: Q04DX002 (ip), vehicle: saline with Tween-80); 96 % of control (dose: 100.0 mg/kg/injection, schedule: Q04DX002 (ip), vehicle: saline with Tween-80); 89 % of control (dose: 200.0 mg/kg/injection, schedule: Q04DX002 (ip), vehicle: saline with Tween-80).
As for `COc1ccc(C(=O)Cc2nc3nnc(NC(=O)Nc4ccc(Cl)cc4)n3nc2CC(=O)c2ccc(OC)cc2)cc1`, the T/C reads like this: (dose: 60.0 mg/kg/injection, schedule: Q01DX005 (ip), vehicle: saline) 97 % of control; (dose: 120.0 mg/kg/injection, schedule: Q01DX005 (ip), vehicle: saline) 94 % of control; (dose: 240.0 mg/kg/injection, schedule: Q01DX005 (ip), vehicle: saline) 95 % of control.
As to `c1cc2c(cn1)Sc1cnccc1N2`, the T/C is 90 % of control (dose: 6.25 mg/kg/injection, schedule: Q01DX009 (ip), vehicle: distilled water + Tween-80) and 107 % of control (dose: 25.0 mg/kg/injection, schedule: Q01DX009 (ip), vehicle: distilled water + Tween-80).
For `COc1cc2c(cc1OC)C(Cc1cc(Br)sc1Br)N(C(C)=O)CC2` (stereo unspecified), the T/C runs as follows: (dose: 100.0 mg/kg/injection, schedule: Q01DX001 (ip), vehicle: Klucel (hydroxypropylcellulose) (HPC)) 101 % of control; (dose: 200.0 mg/kg/injection, schedule: Q01DX001 (ip), vehicle: Klucel (hydroxypropylcellulose) (HPC)) 101 % of control; (dose: 400.0 mg/kg/injection, schedule: Q01DX001 (ip), vehicle: Klucel (hydroxypropylcellulose) (HPC)) 113 % of control.
As to `NC(N)=NS(=O)(=O)c1ccc(NCc2c3ccccc3nc3ccccc23)cc1`, the T/C by setting is: (dose: 3.12 mg/kg/injection, schedule: Q04DX002 (ip), vehicle: Klucel (hydroxypropylcellulose) (HPC)) 114 % of control; (dose: 12.5 mg/kg/injection, schedule: Q04DX002 (ip), vehicle: Klucel (hydroxypropylcellulose) (HPC)) 165 % of control; (dose: 25.0 mg/kg/injection, schedule: Q04DX002 (ip), vehicle: Klucel (hydroxypropylcellulose) (HPC)) 172 % of control; (dose: 50.0 mg/kg/injection, schedule: Q04DX002 (ip), vehicle: Klucel (hydroxypropylcellulose) (HPC)) 166 % of control; (dose: 50.0 mg/kg/injection, schedule: Q04DX003 (ip), vehicle: Klucel (hydroxypropylcellulose) (HPC)) 151 % of control and 156 % of control; (dose: 100.0 mg/kg/injection, schedule: Q04DX002 (ip), vehicle: Klucel (hydroxypropylcellulose) (HPC)) 174 % of control. The T/C is, setting by setting: (dose: 100.0 mg/kg/injection, schedule: Q04DX003 (ip), vehicle: Klucel (hydroxypropylcellulose) (HPC)) 168 % of control and 169 % of control; (dose: 200.0 mg/kg/injection, schedule: Q04DX002 (ip), vehicle: Klucel (hydroxypropylcellulose) (HPC)) 151 % of control; (dose: 200.0 mg/kg/injection, schedule: Q04DX003 (ip), vehicle: Klucel (hydroxypropylcellulose) (HPC)) 174 % of control and 180 % of control; (dose: 400.0 mg/kg/injection, schedule: Q04DX002 (ip), vehicle: Klucel (hydroxypropylcellulose) (HPC)) 169 % of control; (dose: 400.0 mg/kg/injection, schedule: Q04DX003 (ip), vehicle: Klucel (hydroxypropylcellulose) (HPC)) 155 % of control and 202 % of control and 207 % of control; (dose: 800.0 mg/kg/injection, schedule: Q04DX002 (ip), vehicle: Klucel (hydroxypropylcellulose) (HPC)) 161 % of control. In addition, the T/C (dose: 800.0 mg/kg/injection, schedule: Q04DX003 (ip), vehicle: Klucel (hydroxypropylcellulose) (HPC)) was 162 % of control and 210 % of control and 250 % of control.
`CC(=Nc1ccc2c(c1)C(=O)c1ccc(N=C(C)N(C)C)cc1C2=O)N(C)C`: the T/C is, setting by setting: under setting [3], 100 % of control; under setting [6], 109 % of control; (dose: 200.0 mg/kg/injection, schedule: Q01DX005 (ip), vehicle: Klucel (hydroxypropylcellulose) (HPC)) 100 % of control.
For the compound `CC12CCC3C(CCC4N(CCCl)CCCC34C)C1CCC2O` (stereo unspecified), the T/C is 101 % of control (dose: 25.0 mg/kg/injection, schedule: Q01DX001 (ip), vehicle: saline); 109 % of control (dose: 50.0 mg/kg/injection, schedule: Q01DX001 (ip), vehicle: saline); 111 % of control (dose: 100.0 mg/kg/injection, schedule: Q01DX001 (ip), vehicle: saline).
As to `CCN(CC)CCNc1ccc(COC(C)=O)c2oc3ccccc3c(=O)c12`, the T/C (dose: 6.25 mg/kg/injection, schedule: Q01DX005 (ip), vehicle: saline with Tween-80) is 111 % of control and the T/C (dose: 12.5 mg/kg/injection, schedule: Q01DX005 (ip), vehicle: saline with Tween-80) was 118 % of control.

For the origin of these results see PubChem BioAssay AID330 (DTP/NCI, 2004).
